Reference: the kinase profiling compilation of Christmann-Franck et al. (2016)
Where “and” joins values, the source holds several entries; their conditions need not be identical. Equal entries are not always repeated.

Legend:
Assay in all cases: radiometric filter-binding kinase assay
MAPKAPK3 (human) = MAPKAPK3 (human) (UniProt Q16644)
SRPK1 (human) = SRPK1 (human) (UniProt Q96SB4)
MAPK12 (human) = MAPK12 (human) (UniProt P53778)
IKBKB (human) = IKBKB (human) (UniProt O14920)
CSK (human) = CSK (human) (UniProt P41240)
PLK1 (human) = PLK1 (human) (UniProt P53350)
Chain of PLK1 (human) (P53350 whole entry, looked up): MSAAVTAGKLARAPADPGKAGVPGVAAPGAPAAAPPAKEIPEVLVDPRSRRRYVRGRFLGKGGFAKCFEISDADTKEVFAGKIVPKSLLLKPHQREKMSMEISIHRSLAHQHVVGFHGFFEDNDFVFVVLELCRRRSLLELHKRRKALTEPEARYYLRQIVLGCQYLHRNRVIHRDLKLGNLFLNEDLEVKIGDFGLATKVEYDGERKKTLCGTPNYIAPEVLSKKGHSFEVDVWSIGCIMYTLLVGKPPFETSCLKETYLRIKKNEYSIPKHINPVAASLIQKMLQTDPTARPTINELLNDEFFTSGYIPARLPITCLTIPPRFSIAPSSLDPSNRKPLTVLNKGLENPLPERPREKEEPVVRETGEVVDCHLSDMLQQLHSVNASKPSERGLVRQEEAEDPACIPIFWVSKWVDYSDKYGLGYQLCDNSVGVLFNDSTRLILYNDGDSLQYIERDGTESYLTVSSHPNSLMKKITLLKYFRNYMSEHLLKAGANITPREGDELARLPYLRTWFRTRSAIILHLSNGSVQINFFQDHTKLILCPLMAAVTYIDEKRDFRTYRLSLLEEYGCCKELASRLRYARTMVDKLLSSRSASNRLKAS

ROCK2 (rat) = details: accession and sequence are those of the human protein
[1] = tested on: SGK1 (human), O00141 [S422D]
PIM1 (human) = PIM1 (human) (UniProt P11309)
IRAK4 (human) = IRAK4 (human) (UniProt Q9NWZ3)
Chain of IRAK4 (human) (Q9NWZ3 whole entry, looked up): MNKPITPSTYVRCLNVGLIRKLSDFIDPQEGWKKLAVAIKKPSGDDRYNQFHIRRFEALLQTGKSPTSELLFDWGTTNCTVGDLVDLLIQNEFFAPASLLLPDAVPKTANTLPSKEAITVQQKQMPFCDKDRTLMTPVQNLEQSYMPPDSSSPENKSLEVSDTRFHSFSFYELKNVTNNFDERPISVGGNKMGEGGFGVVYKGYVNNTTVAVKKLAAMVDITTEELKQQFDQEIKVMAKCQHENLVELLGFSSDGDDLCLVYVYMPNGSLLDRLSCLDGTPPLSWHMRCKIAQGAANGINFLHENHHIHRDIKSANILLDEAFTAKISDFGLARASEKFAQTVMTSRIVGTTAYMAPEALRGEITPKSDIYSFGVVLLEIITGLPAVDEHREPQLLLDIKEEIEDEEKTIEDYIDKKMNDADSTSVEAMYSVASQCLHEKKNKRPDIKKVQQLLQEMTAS

TTK (human) = TTK (human) (UniProt P33981)
RIPK2 (human) = RIPK2 (human) (UniProt O43353)
PDPK1 (human) = PDPK1 (human) (UniProt O15530); details: compound 1.0 µM
PRKCA (human) = PRKCA (human) (UniProt P17252)
PRKAA1 or PRKAA2 (rat) = details: accession and sequence are those of the human protein
EPHB4 (human) = EPHB4 (human) (UniProt P54760)
MARK1 (human) = MARK1 (human) (UniProt Q9P0L2)
Chain of MARK1 (human) (Q9P0L2 whole entry, looked up): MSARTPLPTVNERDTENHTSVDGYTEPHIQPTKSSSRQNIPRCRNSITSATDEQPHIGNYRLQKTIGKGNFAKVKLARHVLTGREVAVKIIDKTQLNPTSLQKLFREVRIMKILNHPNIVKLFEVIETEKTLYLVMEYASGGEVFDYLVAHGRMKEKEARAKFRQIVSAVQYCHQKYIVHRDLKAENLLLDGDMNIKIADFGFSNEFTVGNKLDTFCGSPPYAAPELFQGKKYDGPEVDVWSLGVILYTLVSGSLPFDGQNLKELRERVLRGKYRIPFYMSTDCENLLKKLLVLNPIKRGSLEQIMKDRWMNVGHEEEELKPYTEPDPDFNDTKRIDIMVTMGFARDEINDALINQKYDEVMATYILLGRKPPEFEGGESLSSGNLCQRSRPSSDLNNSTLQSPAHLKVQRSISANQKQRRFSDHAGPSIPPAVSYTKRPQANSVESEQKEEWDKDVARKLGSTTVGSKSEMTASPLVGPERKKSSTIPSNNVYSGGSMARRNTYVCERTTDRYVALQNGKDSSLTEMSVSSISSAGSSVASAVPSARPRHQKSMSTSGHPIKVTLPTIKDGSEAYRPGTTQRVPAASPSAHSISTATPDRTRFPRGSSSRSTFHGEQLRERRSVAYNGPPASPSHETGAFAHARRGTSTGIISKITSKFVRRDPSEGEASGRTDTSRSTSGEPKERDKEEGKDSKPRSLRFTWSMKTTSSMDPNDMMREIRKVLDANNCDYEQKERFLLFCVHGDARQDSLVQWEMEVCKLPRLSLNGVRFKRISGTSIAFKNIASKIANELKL

FLT1 (human) = FLT1 (human) (UniProt P17948)
RPS6KA5 KD1 KD2 (human) = RPS6KA5 KD1 KD2 (human) (UniProt O75582)
IGF1R (human) = IGF1R (human) (UniProt P08069)
CAMKK2 (human) = CAMKK2 (human) (UniProt Q96RR4)
MYLK (human) = MYLK (human) (UniProt Q15746)
Chain of MYLK (human) (Q15746 whole entry, looked up): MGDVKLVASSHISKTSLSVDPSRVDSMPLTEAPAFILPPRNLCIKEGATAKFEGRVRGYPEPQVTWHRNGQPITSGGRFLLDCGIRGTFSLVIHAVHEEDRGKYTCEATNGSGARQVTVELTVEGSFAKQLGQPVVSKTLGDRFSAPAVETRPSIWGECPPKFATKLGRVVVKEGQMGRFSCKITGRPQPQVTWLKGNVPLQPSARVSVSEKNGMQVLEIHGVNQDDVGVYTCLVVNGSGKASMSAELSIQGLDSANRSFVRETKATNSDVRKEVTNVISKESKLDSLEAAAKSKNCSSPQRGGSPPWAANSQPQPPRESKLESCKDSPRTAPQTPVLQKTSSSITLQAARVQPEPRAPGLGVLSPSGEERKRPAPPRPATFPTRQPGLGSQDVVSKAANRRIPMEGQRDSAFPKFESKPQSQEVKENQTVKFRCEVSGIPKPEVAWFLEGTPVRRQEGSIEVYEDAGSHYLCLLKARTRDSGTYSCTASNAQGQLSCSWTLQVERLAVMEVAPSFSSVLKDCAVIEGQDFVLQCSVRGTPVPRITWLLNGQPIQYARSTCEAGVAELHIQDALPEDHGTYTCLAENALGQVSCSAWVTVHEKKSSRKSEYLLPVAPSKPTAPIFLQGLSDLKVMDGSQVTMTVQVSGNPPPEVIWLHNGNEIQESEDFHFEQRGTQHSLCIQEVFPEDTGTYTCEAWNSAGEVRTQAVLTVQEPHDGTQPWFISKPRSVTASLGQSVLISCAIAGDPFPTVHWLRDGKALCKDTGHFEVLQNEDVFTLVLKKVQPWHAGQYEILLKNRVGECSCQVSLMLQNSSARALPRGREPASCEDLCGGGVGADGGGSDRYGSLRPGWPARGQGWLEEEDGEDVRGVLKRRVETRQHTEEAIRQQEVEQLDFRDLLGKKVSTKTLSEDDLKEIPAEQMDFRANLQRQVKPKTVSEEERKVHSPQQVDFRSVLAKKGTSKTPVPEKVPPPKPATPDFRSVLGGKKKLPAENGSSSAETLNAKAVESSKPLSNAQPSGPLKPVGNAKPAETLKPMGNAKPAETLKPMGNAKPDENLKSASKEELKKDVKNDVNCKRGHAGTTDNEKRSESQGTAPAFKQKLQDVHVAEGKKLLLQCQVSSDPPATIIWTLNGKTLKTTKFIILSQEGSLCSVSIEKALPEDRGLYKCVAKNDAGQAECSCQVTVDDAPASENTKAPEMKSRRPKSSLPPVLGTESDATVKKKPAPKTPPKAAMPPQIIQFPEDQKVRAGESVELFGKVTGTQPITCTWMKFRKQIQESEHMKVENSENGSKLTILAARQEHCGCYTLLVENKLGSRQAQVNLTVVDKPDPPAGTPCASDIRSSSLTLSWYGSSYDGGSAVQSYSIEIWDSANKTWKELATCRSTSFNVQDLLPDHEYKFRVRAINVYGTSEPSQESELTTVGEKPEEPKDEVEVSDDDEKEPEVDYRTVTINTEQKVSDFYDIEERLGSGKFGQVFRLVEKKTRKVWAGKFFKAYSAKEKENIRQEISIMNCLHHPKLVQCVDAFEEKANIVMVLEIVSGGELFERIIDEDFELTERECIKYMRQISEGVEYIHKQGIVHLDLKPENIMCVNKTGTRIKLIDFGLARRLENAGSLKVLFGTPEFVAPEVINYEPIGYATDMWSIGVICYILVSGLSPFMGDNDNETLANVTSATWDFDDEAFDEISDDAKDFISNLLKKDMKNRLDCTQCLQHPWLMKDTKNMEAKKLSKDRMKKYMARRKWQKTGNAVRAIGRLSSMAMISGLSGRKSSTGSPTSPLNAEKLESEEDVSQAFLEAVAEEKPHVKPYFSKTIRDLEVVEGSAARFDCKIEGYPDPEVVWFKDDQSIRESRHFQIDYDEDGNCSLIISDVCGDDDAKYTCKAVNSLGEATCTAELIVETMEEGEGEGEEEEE

EEF2K (human) = EEF2K (human) (UniProt O00418)
MKNK1 (human) = MKNK1 (human) (UniProt Q9BUB5)
CHEK2 (human) = CHEK2 (human) (UniProt O96017)
Chain of CHEK2 (human) (O96017 whole entry, looked up): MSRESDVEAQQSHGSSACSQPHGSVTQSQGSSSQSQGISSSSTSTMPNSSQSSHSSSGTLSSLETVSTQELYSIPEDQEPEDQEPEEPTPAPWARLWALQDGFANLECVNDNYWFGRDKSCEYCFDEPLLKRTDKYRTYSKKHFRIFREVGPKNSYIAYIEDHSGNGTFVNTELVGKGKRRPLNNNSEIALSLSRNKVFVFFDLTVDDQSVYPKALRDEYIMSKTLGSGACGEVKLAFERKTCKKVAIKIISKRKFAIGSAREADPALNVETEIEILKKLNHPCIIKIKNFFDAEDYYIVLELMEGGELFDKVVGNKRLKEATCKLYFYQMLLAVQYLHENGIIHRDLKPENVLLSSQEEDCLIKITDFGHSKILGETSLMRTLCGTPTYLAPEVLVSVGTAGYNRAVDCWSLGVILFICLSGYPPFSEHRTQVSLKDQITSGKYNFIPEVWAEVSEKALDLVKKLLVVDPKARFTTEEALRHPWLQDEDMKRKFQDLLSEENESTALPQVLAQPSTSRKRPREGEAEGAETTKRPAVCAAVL

[2] = tested on: AKT1 (human), P31749 [S473D]
GCK (human) = GCK (human) (UniProt Q12851)
BTK (human) = BTK (human) (UniProt Q06187)
Chain of BTK (human) (Q06187 whole entry, looked up): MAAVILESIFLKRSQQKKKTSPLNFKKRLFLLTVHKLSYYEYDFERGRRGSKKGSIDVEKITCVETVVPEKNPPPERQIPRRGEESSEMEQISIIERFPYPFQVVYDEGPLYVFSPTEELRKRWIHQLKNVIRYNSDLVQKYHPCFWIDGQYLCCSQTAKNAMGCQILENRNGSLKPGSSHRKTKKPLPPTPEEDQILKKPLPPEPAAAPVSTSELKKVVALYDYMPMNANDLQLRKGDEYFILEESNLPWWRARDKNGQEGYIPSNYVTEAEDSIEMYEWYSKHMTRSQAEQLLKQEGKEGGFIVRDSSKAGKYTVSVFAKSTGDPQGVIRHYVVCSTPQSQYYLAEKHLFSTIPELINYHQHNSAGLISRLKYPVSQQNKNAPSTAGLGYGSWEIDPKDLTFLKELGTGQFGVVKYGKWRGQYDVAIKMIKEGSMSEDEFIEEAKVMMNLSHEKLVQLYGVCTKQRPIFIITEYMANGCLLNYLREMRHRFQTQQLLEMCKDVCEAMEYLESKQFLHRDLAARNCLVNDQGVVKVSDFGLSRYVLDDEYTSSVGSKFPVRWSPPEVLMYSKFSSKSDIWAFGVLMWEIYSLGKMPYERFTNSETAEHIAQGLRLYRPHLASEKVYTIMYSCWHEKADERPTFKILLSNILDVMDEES

STK3 (human) = STK3 (human) (UniProt Q13188)
MAPK11 (human) = MAPK11 (human) (UniProt Q15759)

Q: For `COc1cc(C(=O)N2CCC(N3CCN(C)CC3)CC2)ccc1Nc1ncc2c(n1)N(C)c1ccccc1C(=O)N2C`, which residual activity (MAPKAPK3 (human); compound 1.0 µM) is on record?
A: The residual activity was 85%.

Q: And the residual activity (MAPKAPK3 (human); compound 10.0 µM)?
A: The residual activity was 89%.

Q: What about the residual activity (SRPK1 (human); compound 1.0 µM) of the same compound?
A: The residual activity was 98%.

Q: And the residual activity (SRPK1 (human); compound 10.0 µM)?
A: The residual activity was 110%.

Q: And the residual activity (MAPK12 (human); compound 1.0 µM)?
A: Its residual activity is 90%.

Q: What about the residual activity (MAPK12 (human); compound 10.0 µM) of the same compound?
A: Its residual activity is 106%.

Q: What about the residual activity (IKBKB (human); compound 1.0 µM) of the same compound?
A: Its residual activity is 103%.

Q: And the residual activity (IKBKB (human); compound 10.0 µM)?
A: Its residual activity is 106%.

Q: What about the residual activity (CSK (human); compound 1.0 µM) of the same compound?
A: The residual activity was 70%.

Q: What about the residual activity (CSK (human); compound 10.0 µM) of the same compound?
A: The residual activity was 80%.

Q: What about the IC50 (PLK1 (human)) of the same compound?
A: The IC50 was > 100 µM.

Q: What about the residual activity (PLK1 (human); compound 1.0 µM) of the same compound?
A: Its residual activity is 73%.

Q: What about the residual activity (PLK1 (human); compound 10.0 µM) of the same compound?
A: The residual activity was 35%.

Q: What about the residual activity (ROCK2 (rat); compound 1.0 µM) of the same compound?
A: Its residual activity is 84%.

Q: And the residual activity (ROCK2 (rat); compound 10.0 µM)?
A: The residual activity was 84%.

Q: And the residual activity ([1]; compound 1.0 µM)?
A: The residual activity was 75%.

Q: What about the residual activity ([1]; compound 10.0 µM) of the same compound?
A: Its residual activity is 89%.

Q: And the residual activity (PIM1 (human); compound 1.0 µM)?
A: The residual activity was 94%.

Q: And the residual activity (PIM1 (human); compound 10.0 µM)?
A: The residual activity was 87%.

Q: And the residual activity (IRAK4 (human); compound 1.0 µM)?
A: The residual activity was 93%.

Q: What about the residual activity (IRAK4 (human); compound 10.0 µM) of the same compound?
A: The residual activity was 94%.

Q: And the residual activity (TTK (human); compound 1.0 µM)?
A: Its residual activity is 84%.

Q: And the residual activity (TTK (human); compound 10.0 µM)?
A: The residual activity was 91%.

Q: And the residual activity (RIPK2 (human); compound 1.0 µM)?
A: Its residual activity is 103%.

Q: And the residual activity (RIPK2 (human); compound 10.0 µM)?
A: Its residual activity is 101%.

Q: What about the residual activity (PDPK1 (human)) of the same compound?
A: Its residual activity is 68% and 74%.

Q: What about the residual activity (PRKCA (human); compound 1.0 µM) of the same compound?
A: The residual activity was 95%.

Q: What about the residual activity (PRKCA (human); compound 10.0 µM) of the same compound?
A: The residual activity was 97%.

Q: And the residual activity (PRKAA1 or PRKAA2 (rat); compound 1.0 µM)?
A: Its residual activity is 70%.

Q: And the residual activity (PRKAA1 or PRKAA2 (rat); compound 10.0 µM)?
A: Its residual activity is 46%.

Q: What about the residual activity (EPHB4 (human); compound 1.0 µM) of the same compound?
A: The residual activity was 90%.

Q: What about the residual activity (EPHB4 (human); compound 10.0 µM) of the same compound?
A: The residual activity was 107%.

Q: What about the residual activity (MARK1 (human); compound 1.0 µM) of the same compound?
A: Its residual activity is 89%.

Q: What about the residual activity (MARK1 (human); compound 10.0 µM) of the same compound?
A: Its residual activity is 93%.

Q: What about the residual activity (FLT1 (human); compound 1.0 µM) of the same compound?
A: Its residual activity is 64%.

Q: What about the residual activity (FLT1 (human); compound 10.0 µM) of the same compound?
A: The residual activity was 61%.

Q: And the residual activity (RPS6KA5 KD1 KD2 (human); compound 1.0 µM)?
A: The residual activity was 79%.

Q: And the residual activity (RPS6KA5 KD1 KD2 (human); compound 10.0 µM)?
A: Its residual activity is 84%.

Q: And the residual activity (IGF1R (human); compound 1.0 µM)?
A: Its residual activity is 107%.

Q: What about the residual activity (IGF1R (human); compound 10.0 µM) of the same compound?
A: The residual activity was 90%.

Q: What about the residual activity (CAMKK2 (human); compound 1.0 µM) of the same compound?
A: Its residual activity is 89%.

Q: And the residual activity (CAMKK2 (human); compound 10.0 µM)?
A: Its residual activity is 53%.

Q: And the IC50 (MYLK (human))?
A: The IC50 was 12.2 µM.

Q: What about the residual activity (MYLK (human); compound 1.0 µM) of the same compound?
A: Its residual activity is 76%.

Q: And the residual activity (MYLK (human); compound 10.0 µM)?
A: The residual activity was 25%.

Q: What about the residual activity (EEF2K (human); compound 1.0 µM) of the same compound?
A: The residual activity was 75%.

Q: What about the residual activity (EEF2K (human); compound 10.0 µM) of the same compound?
A: Its residual activity is 82%.

Q: And the residual activity (MKNK1 (human); compound 1.0 µM)?
A: The residual activity was 86%.

Q: What about the residual activity (MKNK1 (human); compound 10.0 µM) of the same compound?
A: The residual activity was 53%.

Q: And the IC50 (CHEK2 (human))?
A: The IC50 was 2 µM.

Q: What about the residual activity (CHEK2 (human); compound 1.0 µM) of the same compound?
A: Its residual activity is 38%.

Q: And the residual activity (CHEK2 (human); compound 10.0 µM)?
A: The residual activity was 13%.

Q: What about the residual activity ([2]; compound 1.0 µM) of the same compound?
A: Its residual activity is 71%.

Q: What about the residual activity ([2]; compound 10.0 µM) of the same compound?
A: The residual activity was 81%.

Q: And the residual activity (GCK (human); compound 1.0 µM)?
A: Its residual activity is 93%.

Q: And the residual activity (GCK (human); compound 10.0 µM)?
A: Its residual activity is 99%.

Q: And the residual activity (BTK (human); compound 1.0 µM)?
A: The residual activity was 95%.

Q: And the residual activity (BTK (human); compound 10.0 µM)?
A: Its residual activity is 75%.

Q: And the residual activity (STK3 (human); compound 1.0 µM)?
A: Its residual activity is 100%.

Q: And the residual activity (STK3 (human); compound 10.0 µM)?
A: The residual activity was 98%.

Q: And the residual activity (MAPK11 (human); compound 1.0 µM)?
A: The residual activity was 73%.

Q: What about the residual activity (MAPK11 (human); compound 10.0 µM) of the same compound?
A: The residual activity was 45%.
